Test results from publication PMC4452637, “Identification of positron emission tomography (PET) tracer candidates by prediction of the target-bound fraction in the brain” (EJNMMI Research, 2014).
Where two headings read alike, the source gives them in different places.

Columns and labels:
NET = settings: literature value; 76 (Additional file 1); cited from earlier work
D2 [1] = settings: PET, cited from earlier work
[2] = High-throughput brain slice method (Vu,brain); settings: unbound volume of distribution in brain, measured in rat brain slices, LC-MS/MS (no fu,brain tabulated in Table S1)
Amyloid [3] = target: Amyloid; set-up: method as in ref 12, 13, 14, 15 (Additional file 1); settings: literature value; 15 (Additional file 1); cited from earlier work
AchE = settings: literature value; ref 18 (Additional file 1); cited from earlier work
[4] = set-up: method as in ref 10 (a number printed in a supplementary file, which may have a reference list of its own: not looked up in the article's list); settings: unbound fraction in homogenized brain tissue, reported; cited from earlier work
[5] = Unbound fraction in brain homogenate (fu,brain); Vu,brain calculated from it with pH-partition model; settings: calculated from reported fu,brain and tracer pKa with pH-partition model (tracers with fu,brain tabulated, footnote h of Table S1)
Experimental: The unbound volume of distribution in the brain (Vu,brain) describing the extent of non-specific partitioning was determined for 31 tracers using a previously described high-throughput brain slice method [11].

D2 [6] = target: D2; set-up: method as in ref 22, 31, 62, 82 (Additional file 1); settings: literature value; 82 (Additional file 1); cited from earlier work
GABA = target: GABA; set-up: method as in ref 33, 74 (Additional file 1); settings: literature value; 74 (Additional file 1); cited from earlier work
KOR = target: KOR; set-up: method as in ref 35 (Additional file 1); settings: literature value; ref 35 (Additional file 1); cited from earlier work
NK1 = target: NK1; set-up: method as in ref 36 (Additional file 1); settings: literature value; ref 36 (Additional file 1); cited from earlier work
H3 = target: H3; set-up: method as in ref 38 (Additional file 1); settings: literature value; ref 38 (Additional file 1); cited from earlier work
SERT = target: SERT; set-up: method as in ref 5, 19, 43, 45, 67 (Additional file 1); settings: literature value; 67 (Additional file 1); cited from earlier work
CB1r = target: CB1r; set-up: method as in ref 48 (Additional file 1); settings: literature value; ref 48 (Additional file 1); cited from earlier work
DAT [7] = target: DAT; set-up: method as in ref 26, 31, 57 (Additional file 1); settings: literature value; 57 (Additional file 1); cited from earlier work
nAChr a4b2 = settings: PET, thalamus, ref 3 (Additional file 1), cited from earlier work
Amyloid [8] = settings: PET, cortex, 61 (Additional file 1), cited from earlier work
5HT2a = settings: PET, temporal cortex, 47 (Additional file 1), cited from earlier work
DAT [9] = settings: PET, striatum, 58 (Additional file 1), cited from earlier work
TSPO [10] = target: TSPO; set-up: method as in ref 28, 29, 55 (Additional file 1); settings: literature value; 55 (Additional file 1); cited from earlier work
TSPO [11] = settings: PET, basal ganglia, 81 (Additional file 1), cited from earlier work
5HT1a = settings: PET, hippocampus, 65 (Additional file 1), cited from earlier work
[12] = caudate/striatum, ref 23 (Additional file 1)

CNCCC(Oc1ccccc1OC)c1ccccc1 (racemic) [[^11C]Nisoxetine]
Kd (NET): 0.73 nM

CCN1CCC[C@H]1CNC(=O)c1c(O)c(Cl)cc(Cl)c1O[11CH3] (racemic) [[^11C]Raclopride]
BP ND (D2 [1]; [12]): 2.6

Cc1ccc(N2CCN([11CH3])CC2)c2oc(C(=O)Nc3ccc(N4CCOCC4)cc3)cc(=O)c12 [[^11C]AZ10419369]
V u,brain [2]: 30 mL/g brain

CNc1ccc(-c2nc3ccc(O)cc3s2)cn1 [[^11C]AZD2184]
Kd (Amyloid [3]): 4.9 nM

[11CH3]Nc1ccc(-c2nc3ccc(O)cc3s2)cn1 [[^11C]AZD2184]
V u,brain [2]: 33 mL/g brain

CN1C(=O)Cc2cc3c(CCC4CCN(Cc5ccccc5)CC4)noc3cc21 [[^11C]CP-126998]
Kd (AchE): 0.48 nM

[11CH3]N1C(=O)Cc2cc3c(CCC4CCN(Cc5ccccc5)CC4)noc3cc21 [[^11C]CP-126998]
fu,brain [4]: 0.07
V u,brain [5]: 41 mL/g brain

CN([11CH3])Cc1ccccc1Sc1ccc(C#N)cc1N [[^11C]DASB]
fu,brain [4]: 0.09
V u,brain [5]: 31 mL/g brain

CCN1CCC[C@H]1CNC(=O)c1cc(Br)cc(OC)c1OC [[^11C]FLB457]
Kd (D2 [6]): 0.02 nM

CCN1CCC[C@H]1CNC(=O)c1cc(Br)cc(OC)c1O[11CH3] [[^11C]FLB457]
fu,brain [4]: 0.11
V u,brain [5]: 26 mL/g brain

CCOC(=O)c1ncn2c1CN(C)C(=O)c1cc(F)ccc1-2 [[^11C]Flumazenil]
Kd (GABA): 0.7 nM

COC(=O)N1CCN(C(=O)Cc2ccc(Cl)c(Cl)c2)[C@H](CN2CCCC2)C1 [[^11C]GR103545]
Kd (KOR): 0.048 nM

[11CH3]OC(=O)N1CCN(C(=O)Cc2ccc(Cl)c(Cl)c2)[C@H](CN2CCCC2)C1 [[^11C]GR103545]
fu,brain [4]: 0.07
V u,brain [5]: 41 mL/g brain

COc1ccc(-n2nnnc2C(F)(F)F)cc1CN[C@H]1CCCN[C@H]1c1ccccc1 [[^11C]GR205171]
Kd (NK1): 0.016 nM
fu,brain [4]: 0.05
V u,brain [5]: 57 mL/g brain

CNC(=O)c1ccc(Oc2ccc3c(c2)CCN(C2CCC2)CC3)nc1 [[^11C]GSK189254A]
Kd (H3): 0.08 nM

[11CH3]NC(=O)c1ccc(Oc2ccc3c(c2)CCN(C2CCC2)CC3)nc1 [[^11C]GSK189254A]
fu,brain [4]: 0.24

Cc1nccc2c1[nH]c1cc(O[11CH3])ccc12 [[^11C]Harmine]
fu,brain [4]: 0.04
V u,brain [5]: 25 mL/g brain

Cc1ccc(Sc2ccccc2CN(C)C)c(N)c1 [[^11C]MADAM]
Kd (SERT): 0.06 nM

Cc1ccc(Sc2ccccc2CN(C)[11CH3])c(N)c1 [[^11C]MADAM]
V u,brain [2]: 90 mL/g brain

COc1c(O[11CH3])cccc1[C@H](O)C1CCN(CCc2ccc(F)cc2)CC1 [[^11C]MDL100907]
V u,brain [5]: 17 mL/g brain

CSc1ccc([C@H]2CN3CCC[C@H]3c3ccccc32)cc1 [[^11C]McN5652]
Kd (SERT): 0.2 nM

[11CH3]Sc1ccc([C@H]2CN3CCC[C@H]3c3ccccc32)cc1 [[^11C]McN5652]
V u,brain [2]: 238 mL/g brain

COc1ccccc1O[C@@H](c1ccccc1)[C@H]1CNCCO1 [[^11C]MeNER]
Kd (NET): 2.5 nM

[11CH3]Oc1ccccc1O[C@@H](c1ccccc1)[C@H]1CNCCO1 [[^11C]MeNER]
fu,brain [4]: 0.07
V u,brain [5]: 31 mL/g brain

COc1cccc([C@H]2C[C@@H](N[C@H](C)c3ccccc3)C(=O)N2c2ccc(C(F)(F)F)cc2)c1 [[^11C]MePPEP]
Kd (CB1r): 0.1 nM

C[C@@H](N[C@@H]1C[C@H](c2cccc(O[11CH3])c2)N(c2ccc(C(F)(F)F)cc2)C1=O)c1ccccc1 [[^11C]MePPEP]
V u,brain [2]: 296 mL/g brain

[11CH3]N1CCc2cc(Cl)c(O)cc2[C@@H](c2cccc3ccoc23)C1 [[^11C]NNC112]
V u,brain [2]: 70 mL/g brain

COC(=O)C1C(c2ccc(C)cc2)CC2CCC1N2CC=CI (stereo not shown) [[^11C]PE2I]
Kd (DAT [7]): 4.9 nM

Cc1ccc(C2CC3CCC(C2C(=O)O[11CH3])N3CC=CI)cc1 (stereo not shown) [[^11C]PE2I]
V u,brain [2]: 39 mL/g brain

[11CH3]Nc1ccc(-c2nc3ccc(O)cc3s2)cc1 [[^11C]PIB]
fu,brain [4]: 0.004

CCC(C)N(C)C(=O)c1cc2ccccc2c(-c2ccccc2Cl)n1 (stereo not shown) [[^11C]PK11195]
fu,brain [4]: 0.01
V u,brain [5]: 59 mL/g brain

CCN1CCC[C@H]1CNC(=O)c1c(OC)ccc(Br)c1OC [[^11C]Remoxipride]
Kd (D2 [6]): 270 nM

[11CH3]N1CCc2cc(Cl)c(O)cc2[C@@H](c2ccccc2)C1 [[^11C]SCH23390]
fu,brain [4]: 0.06
V u,brain [5]: 32 mL/g brain

COc1ccccc1N1CCN(CCN(c2ccccn2)[11C](=O)C2CCCCC2)CC1 [[^11C]WAY100635]
V u,brain [2]: 14 mL/g brain

[18F]c1ncccc1OC[C@@H]1CCN1 [[^18 F]2-FA-85380]
BP ND (nAChr a4b2): 1.8
BP ND (nAChr a4b2; listed as [^18F]2-FA-85380): 1.8[3]

CNc1ccc(-c2cc3cc(O)ccc3o2)c(F)n1 [[^18 F]AZD4694]
Kd (Amyloid [3]): 2.3 nM

CNc1ccc(-c2cc3cc(O)ccc3o2)c([18F])n1 [[^18 F]AZD4694]
BP ND (Amyloid [8]): 1.2
BP ND (Amyloid [8]; listed as [^11C]AZD4694): 1.2[16]
V u,brain [2]: 205 mL/g brain

O=C(c1ccc([18F])cc1)C1CCN(CCn2c(=S)[nH]c3ccccc3c2=O)CC1 [[^18 F]Altanserin]
fu,brain [4]: 0.02
V u,brain [5]: 122 mL/g brain
BP ND (5HT2a): 1.06
BP ND (5HT2a; listed as [^18F]Altanserin): 1.06[8]

Cc1ccc([C@H]2C[C@@H]3CC[C@H]([C@H]2C(=O)OCCF)N3C/C=C/I)cc1 [[^18 F]FE-PE2I]
Kd (DAT [7]): 12 nM

Cc1ccc([C@H]2C[C@@H]3CC[C@H]([C@H]2C(=O)OCC[18F])N3C/C=C/I)cc1 [[^18 F]FE-PE2I]
BP ND (DAT [9]): 4.1
BP ND (DAT [9]; listed as [^11C]FE-PE2I): 4.1[27]
V u,brain [2]: 62 mL/g brain

CC(=O)N(Cc1ccccc1OCCF)c1cnccc1Oc1ccccc1 [[^18 F]FEPPA]
Kd (TSPO [10]): 0.07 nM

CC(=O)N(Cc1ccccc1OCC[18F])c1cnccc1Oc1ccccc1 [[^18 F]FEPPA]
fu,brain [4]: 0.07
BP ND (TSPO [11]): 4.4
BP ND (TSPO [11]; listed as [^18F]FEPPA): 4.4[30]
V u,brain [5]: 15 mL/g brain

COC(=O)[C@H]1[C@@H](c2ccc(I)cc2)C[C@@H]2CC[C@H]1N2CCCF [[^18 F]FP-CIT]
Kd (DAT [7]): 33 nM

COC(=O)[C@H]1[C@@H](c2ccc(I)cc2)C[C@@H]2CC[C@H]1N2CCC[18F] [[^18 F]FP-CIT]
BP ND (DAT [9]): 1.0
BP ND (DAT [9]; listed as [^18F]FP-CIT): 1[32]
V u,brain [2]: 36 mL/g brain

C=CCN1CCC[C@H]1CNC(=O)c1cc(CCCF)cc(OC)c1OC [[^18 F]Fallypride]
Kd (D2 [6]): 0.03 nM

C=CCN1CCC[C@H]1CNC(=O)c1cc(CCC[18F])cc(OC)c1OC [[^18 F]Fallypride]
fu,brain [4]: 0.15
BP ND (D2 [1]; [12]): 22.2
BP ND (D2 [1]; caudate/striatum, ref 23 (Additional file 1), listed as [^18F]Fallypride): 22.2[23]
BP ND (D2 [1]; thalamus, 32 (Additional file 1)): 2.11
BP ND (D2 [1]; thalamus, 32 (Additional file 1), listed as [^18F]Fallypride): 2.11[23]
V u,brain [5]: 18 mL/g brain

COc1ccccc1N1CCN(CCN(C(=O)c2ccc([18F])cc2)c2ccccn2)CC1 [[^18 F]MPPF]
fu,brain [4]: 0.1
BP ND (5HT1a): 1.6
BP ND (5HT1a; listed as [^18F]MPPF): 1.6[51]
V u,brain [5]: 14 mL/g brain

O=C(CCCN1CCC2(CC1)C(=O)NCN2c1ccccc1)c1ccc([18F])cc1 [[^18 F]Spiperone]
V u,brain [2]: 147 mL/g brain
